Reference: patent US8106065B2, “Antitussive agent” (Toray Industries, Inc., priority 2005, dated 2012)
Where a name gives a salt, the structure may show the parent alone.

System: coughing induced by citric acid
Assay: Effect on guinea pig coughing models induced by citric acid
Format: in vivo
Details: s.c.; for antitussive effect (number of coughs): Comparative Example 1; for effects for suppressing coughs in comparison to the cough number of the pathosis-induced group: Example 3, 0.1 mg/kg, p<0.05 t-Test
Excerpt: The fact that the morphinan derivatives having the nitrogen-containing cyclic substituent, represented by Formula (I) and the pharmaceutically acceptable acid addition salts thereof are effective for the therapy of coughing may be confirmed by showing inhibitory action against coughing of a guinea pig, which coughing has been induced by administering citric acid to the guinea pig. The inhibitory action against the coughing induced by citric acid administration may be confirmed by the method described in the Examples, but the method is not restricted thereto.
A solution of test substance, a solution of positive control substance (codeine phosphate) or the administration solvent was subcutaneously administered to 6 week-old Hartley guinea pigs at a volume of 0.1 mL/100 g. After leaving the guinea pigs to stand for 25 minutes, they were retained in acrylic chambers for cough detection and the chambers were set to a measurement equipment. Thirty minutes after the subcutaneous administration of the test substance, the nebulizer was turned on and 100 mM citric acid solution, a cough inducer, was atomized and sprayed to the face of each guinea pig for a period of 15 minutes (velocity: 50 mm/min). A minipolygraph was used for recording, and the respiratory waveform within the period of 15 minutes was recorded. A signal when a large and acute change of flow rate compared to the respiratory waveform occurred independently was considered as a cough, and marked on the recording sheet. The marking was conducted while recording the respiratory waveform. When a large and continuous amplitude arose by struggling, the amplitude was distinguished by noting that it was caused by struggling. Since some coughings cause just before, and/or between struggling, the recording sheet and the motion of the guinea pig were observed as simultaneously as possible.

Oc1ccc2c3c1O[C@H]1[C@H](N4CCCC4)CC[C@@]4(O)[C@@H](C2)N(CC2CC2)CC[C@]314 [Compound 2, 17-cyclopropylmethyl-4,5α-epoxy-6β-(pyrrolidine-1-yl)-morphinan-3,14-diol.tartaric acid salt]
antitussive effect (number of coughs) (10 mg/kg): no antitussive effect was observed

O=C1c2ccccc2C(=O)N1[C@@H]1CC[C@@]2(O)[C@H]3Cc4ccc(O)c5c4[C@@]2(CCN3CC2CC2)[C@H]1O5 [Compound 1, N-(17-cyclopropylmethyl-4,5α-epoxy-3,14-dihydroxy-morphinan-6β-yl)-phthalimide]
effect for suppressing coughs in comparison to the cough number of the pathosis-induced group (Example 1, 1 mg/kg, 100 mM citric acid spray 30 min after dosing, p<0.01, n=7): approximately 94%
effect for suppressing coughs in comparison to the cough number of the pathosis-induced group (Example 2, 0.003 mg/kg, p<0.025 1 tailed-Shirley-Williams-Test, n=3): approximately 50%

COc1ccc2c3c1O[C@H]1[C@@H](O)C=C[C@H]4[C@@H](C2)N(C)CC[C@@]341 [codeine phosphate, reference compound]
effect for suppressing coughs (Example 1, 10 mg/kg, 100 mM citric acid spray 30 min after dosing, vs pathosis-induced group, p<0.05, n=7): approximately 51%
effect for suppressing coughs (Example 2, 10 mg/kg, p<0.05 Welch-Test, n=3): approximately 37%

O=C1c2ccccc2CN1[C@@H]1CC[C@@]2(O)[C@H]3Cc4ccc(O)c5c4[C@@]2(CCN3CC2CC2)[C@H]1O5 [Compound 4, 2-(7-cyclopropylmethyl-4,5α-epoxy-3,14-dihydroxy-morphinan-6β-yl)-2,3-dihydro-isoindol-1-one-tartaric acid salt]
effects for suppressing coughs in comparison to the cough number of the pathosis-induced group (n=3): ~25%

O=C1C=CC(=O)N1[C@@H]1CC[C@@]2(O)[C@H]3Cc4ccc(O)c5c4[C@@]2(CCN3CC2CC2)[C@H]1O5 [Compound 6, N-(17-cyclopropylmethyl-4,5α-epoxy-3,14-dihydroxy-morphinan-6β-yl)-maleimide-tartaric acid salt]
antitussive effect (number of coughs) (1 mg/kg): no antitussive effect was observed

O=C1c2ccccc2S(=O)(=O)N1[C@@H]1CC[C@@]2(O)[C@H]3Cc4ccc(O)c5c4[C@@]2(CCN3CC2CC2)[C@H]1O5 [Compound 5, N-(17-cyclopropylmethyl-4,5α-epoxy-3,14-dihydroxy-morphinan-6β-yl)-O-sulfonbenzoic acid imide-tartaric acid salt]
effects for suppressing coughs in comparison to the cough number of the pathosis-induced group (n=3): ~28%

O=C1C2=C(CCCC2)C(=O)N1[C@@H]1CC[C@@]2(O)[C@H]3Cc4ccc(O)c5c4[C@@]2(CCN3CC2CC2)[C@H]1O5 [Compound 3, N-(17-cyclopropylmethyl-4,5α-epoxy-3,14-dihydroxy-morphinan-6β-yl)-3,4,5,6-tetrahydrophthalimide.tartaric acid salt]
effects for suppressing coughs in comparison to the cough number of the pathosis-induced group (n=3): approximately 29%
